Patent US11236086B2, “Substituted pyrrolopyridines as inhibitors of activin receptor-like kinase” (BLUEPRINT MEDICINES CORPORATION, priority 2017, dated 2022)

target: T1, ALK2R206H (mutant ALK2, N-terminally tagged with GST) (Homo sapiens, UniProt Q04771, R206H); assay: ALK binding assay (LANTHASCREEN TR-FRET competitive binding, displacement of Kinase Tracer 178); conditions: read-out: Binding Assay (IC50 class)
T1 construct: purchased Carna Bioscience or ThermoFisher 09-148 or PV6232
T1 sequence (Q04771 21-509 R206H): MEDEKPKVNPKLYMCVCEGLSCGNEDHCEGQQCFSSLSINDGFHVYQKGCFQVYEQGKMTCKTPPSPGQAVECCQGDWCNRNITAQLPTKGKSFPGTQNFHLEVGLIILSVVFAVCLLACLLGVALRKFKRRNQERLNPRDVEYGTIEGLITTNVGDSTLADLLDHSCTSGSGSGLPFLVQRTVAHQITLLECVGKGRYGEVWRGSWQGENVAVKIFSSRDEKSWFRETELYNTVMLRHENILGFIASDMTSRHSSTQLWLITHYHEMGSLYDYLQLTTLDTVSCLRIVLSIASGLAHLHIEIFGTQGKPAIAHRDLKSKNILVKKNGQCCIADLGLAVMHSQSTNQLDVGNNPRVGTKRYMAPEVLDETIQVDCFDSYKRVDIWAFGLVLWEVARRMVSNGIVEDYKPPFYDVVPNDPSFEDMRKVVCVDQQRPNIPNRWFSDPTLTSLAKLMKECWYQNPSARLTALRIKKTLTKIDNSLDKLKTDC
Description: Example 10 ALK Binding Assays
Binding assays were conducted using the LANTHASCREEN® technology (ThermoFisher Scientific). LANTHASCREEN® is a competitive binding, displacement assay where the assumed steady state occupancy of the binding site is measured using a time-resolved, fluorescence energy transfer (TR-FRET) readout between a fluorescent tracer and Europium (Eu)-tagged antibody specific for the kinase or expression tag (e.g., GST) of interest. Displacement of the tracer by a compound of the disclosure reduces, and is directly proportional to, the TR-FRET between the tracer and the antibody. Tracer was used at a concentration equal to or near to its Kd for the kinase. The Eu-tagged antibody was typically used in excess to ensure sampling of all competent protein capable of binding the tracer.
For these assays, a mutant ALK2 was used that was N-terminally tagged with GST (ALK2R206H Carna Bioscience (09-148) or ALK2R206H ThermoFisher (PV6232)); a Eu-tagged anti-GST antibody (ThermoFisher) and Kinase Tracer 178 (ThermoFisher).
In all cases, the kinase (2-5 nM) was mixed with Eu-tagged antibody (4-10 nM) mix and tracer (50 nM) were incubated with test compound titrations prepared in 100% DMSO (1% DMSO final) for 30 minutes at room temperature. All reagents and compounds were dissolved in Kinase Buffer A (ThermoFisher) to achieve the final concentration. The plates were read on a PerkinElmer EnVision® multilabel plate reader or a BioTek Synergy Neo plate reader, and the assay signal was represented as a ratio of the TR-FRET emission (λex 330 nm, λ^em […] and λ^em 665 nm). This readout was normalized to 0% and 100% inhibited control wells, plotted against inhibitor concentration, and fitted to a 4-parameter log dose response curve.
The results of this assay are shown in Table 3 in the column labelled “Binding Assay” wherein “A” represents an IC50 of less than or equal to 10 nM; “B” represents an IC50 of greater than 10 nM and less than or equal to 50 nM; and “C” represents an IC50 of greater than 50 nM. Blank values in the table indicate that the particular compound was not tested in this assay.

Row | IC50 [nM] | SMILES
1 | 10 to 50 | O=C(C1CC1)N1CCN(c2ccnc3[nH]c(-c4ccccc4)cc23)CC1 [Compound 3]
2 | 10 to 50 | O=C(C1CC1)N1CCN(c2ccnc3[nH]c(-c4cccnc4)cc23)CC1 [Compound 4]
3 | 10 to 50 | Cn1cc(-c2cc3c(N4CCN(C(=O)CC#N)CC4)ccnc3[nH]2)cn1 [Compound 5]
4 | ≤ 10 | CCOC(=O)N1CCN(c2ccnc3[nH]c(-c4ncccn4)cc23)CC1 [Compound 9]
5 | 10 to 50 | CC(C)C(=O)N1CCN(c2ccnc3[nH]c(-c4cnn(C)c4)cc23)CC1 [Compound 10]
6 | > 50 | Cc1ccccc1-c1cc2c(N3CCN(C(=O)C4CC4)CC3)ccnc2[nH]1 [Compound 14]
7 | 10 to 50 | Cc1cccc(-c2cc3c(N4CCN(C(=O)C5CC5)CC4)ccnc3[nH]2)c1 [Compound 15]
8 | 10 to 50 | Cc1ccc(-c2cc3c(N4CCN(C(=O)C5CC5)CC4)ccnc3[nH]2)cc1 [Compound 16]
9 | 10 to 50 | O=C(C1CC1)N1CCN(c2ccnc3[nH]c(-c4cccc(F)c4)cc23)CC1 [Compound 17]
10 | 10 to 50 | O=C(C1CC1)N1CCN(c2ccnc3[nH]c(-c4ccccc4F)cc23)CC1 [Compound 18]
11 | ≤ 10 | Cn1cc(-c2cc3c(N4CCN(C(=O)C5CCC5)CC4)ccnc3[nH]2)cn1 [Compound 20]
12 | 10 to 50 | Cc1c(-c2cc3c(N4CCN(C(=O)C5CC5)CC4)ccnc3[nH]2)cnn1C [Compound 22]
13 | ≤ 10 | CCOC(=O)N1CCN(c2ccnc3[nH]c(-c4cc(C)ccn4)cc23)CC1 [Compound 25]
14 | ≤ 10 | CCOC(=O)N1CCN(c2ccnc3[nH]c(-c4ccc(C)nc4)cc23)CC1 [Compound 27]
15 | 10 to 50 | CCOC(=O)N1CCN(c2ccnc3[nH]c(-c4cnc(C)nc4)cc23)CC1 [Compound 31]
16 | ≤ 10 | O=C(OC1COC1)N1CCN(c2ccnc3[nH]c(-c4cn[nH]c4)cc23)CC1 [Compound 36]
17 | 10 to 50 | CCOC(=O)N1CCN(c2ccnc3[nH]c(-c4nn(C)cc4C)cc23)CC1 [Compound 42]
18 | > 50 | CCOCC(=O)N1CCN(c2ccnc3[nH]c(-c4cnn(C)c4)cc23)CC1 [Compound 43]
19 | 10 to 50 | N#Cc1cccc(-c2cc3c(N4CCN(C(=O)C5CC5)CC4)ccnc3[nH]2)c1 [Compound 44]
20 | ≤ 10 | CCOC(=O)N1CCN(c2ccnc3[nH]c(-c4cc(C)ns4)cc23)CC1 [Compound 47]
21 | ≤ 10 | O=C(C1CC1)N1CCN(c2ccnc3[nH]c(-c4ccc(CO)cc4)cc23)CC1 [Compound 57]
22 | > 50 | COc1ccccc1-c1cc2c(N3CCN(C(=O)C4CC4)CC3)ccnc2[nH]1 [Compound 58]

Row | IC50 [nM] | SMILES
23 | ≤ 10 | CCOC(=O)N1CCN(c2ccnc3[nH]c(-c4ncc(C#N)cn4)cc23)CC1 [Compound 61]
24 | 10 to 50 | COc1ccc(-c2cc3c(N4CCN(C(=O)C5CC5)CC4)ccnc3[nH]2)cn1 [Compound 62]
25 | 10 to 50 | Cc1ccc(-c2cc3c(N4CCN(C(=O)C5CC5)CC4)ccnc3[nH]2)c(F)c1 [Compound 63]
26 | 10 to 50 | CCOC(=O)N1CCN(c2ccnc3[nH]c(-c4nn(C)cc4C#N)cc23)CC1 [Compound 72]
27 | ≤ 10 | O=C(OC1COC1)N1CCN(c2ccnc3[nH]c(-c4ncccn4)cc23)CC1 [Compound 73]
28 | 10 to 50 | O=C(OC1COC1)N1CCN(c2ccnc3[nH]c(-c4cnccn4)cc23)CC1 [Compound 74]
29 | ≤ 10 | Cn1cc(-c2cc3c(N4CCN(C(=O)[C@H]5CCOC5)CC4)ccnc3[nH]2)cn1 [Compound 78]
30 | ≤ 10 | Cn1cc(-c2cc3c(N4CCN(C(=O)[C@@H]5CCOC5)CC4)ccnc3[nH]2)cn1 [Compound 79]
31 | ≤ 10 | Cn1cc(-c2cc3c(N4CCN(C(=O)OCC5CC5)CC4)ccnc3[nH]2)cn1 [Compound 80]
32 | 10 to 50 | Cn1cc(-c2cc3c(N4CCN(C(=O)[C@@H]5CCCO5)CC4)ccnc3[nH]2)cn1 [Compound 81]
33 | 10 to 50 | CCC(C)CC(=O)N1CCN(c2ccnc3[nH]c(-c4cnn(C)c4)cc23)CC1 (centres unmarked) [Compound 83]
34 | 10 to 50 | O=C(C1CC1)N1CCN(c2ccnc3[nH]c(-c4ccc(Cl)cc4)cc23)CC1 [Compound 84]
35 | ≤ 10 | CCOC(=O)N1CCN(c2ccnc3[nH]c(-c4cccc(OC)n4)cc23)CC1 [Compound 85]
36 | 10 to 50 | O=C(C1CC1)N1CCN(c2ccnc3[nH]c(-c4ccc(F)cc4F)cc23)CC1 [Compound 87]
37 | ≤ 10 | O=C(C1CC1)N1CCN(c2ccnc3[nH]c(-c4cc(F)cc(F)c4)cc23)CC1 [Compound 88]
38 | ≤ 10 | Cc1[nH]ncc1-c1cc2c(N3CCN(C(=O)OC4COC4)CC3)ccnc2[nH]1 [Compound 92]
39 | ≤ 10 | Cn1cc(-c2cc3c(N4CCN(C(=O)[C@H]5C[C@H](F)C5)CC4)ccnc3[nH]2)cn1 [Compound 94]
40 | ≤ 10 | CCOC(=O)N1CCN(c2ccnc3[nH]c(-c4scnc4C#N)cc23)CC1 [Compound 95]
41 | ≤ 10 | CCOC(=O)N1CCN(c2ccnc3[nH]c(-c4cnn(C)c4)c(CC)c23)CC1 [Compound 99]
42 | 10 to 50 | Cn1cc(-c2cc3c(N4CCN(C(=O)C(C)(C)CO)CC4)ccnc3[nH]2)cn1 [Compound 101]
43 | 10 to 50 | Cn1cnc(-c2cc3c(N4CCN(C(=O)OC5COC5)CC4)ccnc3[nH]2)n1 [Compound 106]
44 | 10 to 50 | Cc1coc(-c2cc3c(N4CCN(C(=O)OC5COC5)CC4)ccnc3[nH]2)n1 [Compound 107]

Row | IC50 [nM] | SMILES
45 | 10 to 50 | Cc1cnc(-c2cc3c(N4CCN(C(=O)OC5COC5)CC4)ccnc3[nH]2)o1 [Compound 108]
46 | 10 to 50 | Cc1nnc(-c2cc3c(N4CCN(C(=O)OC5COC5)CC4)ccnc3[nH]2)o1 [Compound 110]
47 | > 50 | O=C(C1CC1)N1CCN(c2ccnc3[nH]c(-c4ccc(C5CC5)cc4)cc23)CC1 [Compound 119]
48 | ≤ 10 | COc1ccc(-c2cc3c(N4CCN(C(=O)C5CC5)CC4)ccnc3[nH]2)c(F)c1 [Compound 138]
49 | ≤ 10 | Cn1cc(-c2cc3c(N4CCN(C(=O)OCCC5CC5)CC4)ccnc3[nH]2)cn1 [Compound 141]
50 | ≤ 10 | Cn1cc(-c2cc3c(N4CCN(C(=O)OCC5(C)CC5)CC4)ccnc3[nH]2)cn1 [Compound 142]
51 | ≤ 10 | Cn1cc(-c2cc3c(N4CCN(C(=O)OCC5CCC5)CC4)ccnc3[nH]2)cn1 [Compound 143]
52 | ≤ 10 | Cn1cc(-c2cc3c(N4CCN(C(=O)O[C@@H]5CCOC5)CC4)ccnc3[nH]2)cn1 [Compound 154]
53 | ≤ 10 | Cc1c(-c2cc3c(N4CCN(C(=O)OC5COC5)CC4)ccnc3[nH]2)cnn1C [Compound 156]
54 | > 50 | Cc1n[nH]c(C)c1-c1cc2c(N3CCN(C(=O)OC4COC4)CC3)ccnc2[nH]1 [Compound 157]
55 | ≤ 10 | Cc1nc(-c2cc3c(N4CCN(C(=O)OC5COC5)CC4)ccnc3[nH]2)oc1C [Compound 158]
56 | ≤ 10 | COCCCOC(=O)N1CCN(c2ccnc3[nH]c(-c4cnn(C)c4)cc23)CC1 [Compound 163]
57 | ≤ 10 | CCOCCOC(=O)N1CCN(c2ccnc3[nH]c(-c4cnn(C)c4)cc23)CC1 [Compound 164]
58 | 10 to 50 | COCC(C)OC(=O)N1CCN(c2ccnc3[nH]c(-c4cnn(C)c4)cc23)CC1 (centres unmarked) [Compound 165]
59 | 10 to 50 | CCOC(=O)N1CCN(c2ccnc3[nH]c(-c4cnn(C)c4COC)cc23)CC1 [Compound 166]
60 | ≤ 10 | Cc1ccc(-c2cc3c(N4CCN(C(=O)OC5COC5)CC4)ccnc3[nH]2)s1 [Compound 168]
61 | ≤ 10 | Cc1nnc(-c2cc3c(N4CCN(C(=O)OC5COC5)CC4)ccnc3[nH]2)s1 [Compound 181]
62 | 10 to 50 | Cc1nsc(-c2cc3c(N4CCN(C(=O)OC5COC5)CC4)ccnc3[nH]2)n1 [Compound 182]
63 | ≤ 10 | CCC(=O)c1ccc(-c2cc3c(N4CCN(C(=O)C5CC5)CC4)ccnc3[nH]2)cc1 [Compound 184]
64 | 10 to 50 | CCCOc1ccc(-c2cc3c(N4CCN(C(=O)C5CC5)CC4)ccnc3[nH]2)cc1 [Compound 196]
65 | 10 to 50 | Cn1cc(-c2cc3c(N4CCN(C(=O)CCC5CCCC5)CC4)ccnc3[nH]2)cn1 [Compound 206]
